Reference: patent US20260216215A1, “COMPOSITIONS AND METHODS FOR TREATING OR PREVENTING PAIN OR OTHER DISORDERS” (priority 2022, published 2026)

Assays:
neuropathic pain = conditions: purified compound; thermal and mechanical hyperalgesia and mechanical allodynia; cited from earlier work
menstrual pain = experiment: Comparison of VAS scores for CBD only, CBG only, PEA only and combination vaginal suppositories (Example 2); format: in vivo, human; conditions: vaginal suppository; for Magnitude of pain reduction from baseline: VAS points
From the text: Specifically, the formulations were individually/separately administered, with each single formulation being administered on a separate day of the patient's menstrual period.
Comparison of visual analogue pain scores (VAS scores) for CBD only, CBG only, PEA only and CBD+CBG+PEA combinations delivered using vaginal suppositories.

[1] = tested on: inflammation in experimental rat model; conditions: versus Diclofenac (100 mg/kg), p<0.05; cited from earlier work
[2] = cited from earlier work
chemical nociception = conditions: not blocked by naloxone; cited from earlier work

Compound | Magnitude of pain reduction from baseline (menstrual pain) | Duration of effect (menstrual pain) [h] | Onset of effect (menstrual pain) [min] | VAS at max effect (menstrual pain) | further results
C=C(C)[C@@H]1CCC(C)=C[C@H]1c1c(O)cc(CCCCC)cc1O [CBD 50 mg, Cannabidiol] | 2 | 5 | 20 | 5 | Relief of neuropathic pain (neuropathic pain): partially relieve neuropathic pain
CCCCCc1cc(O)c(C/C=C(\C)CCC=C(C)C)c(O)c1 [CBG 50 mg, Cannabigerol] | 0 | – | – | 8 | –
COc1cc(CNC(=O)CCCC/C=C/C(C)C)ccc1O [CPF, capsaicin] | – | – | – | – | Anti-inflammatory effects [1]: comparable to diclofenac
CCCCCCCCCCCCCCCC(=O)NCCO [PEA 250 mg, N-Palmitoylethanolamide] | 2 | 6 | 30 | 5 | –
CC(C)=C1CC[C@@H](C)CC1=O [PUL, (R)-5-Methyl-2-(1-methylethylidine) cyclohexanone] | – | – | – | – | Miscibility with organic solvents ([2]; ethanol, diethyl ether and chloroform): miscible; Solubility in water ([2]; water): practically insolubile; Chemical nociception in first and second phase of the formalin test (chemical nociception): significantly inhibited
